The source of these data is patent US7342000B2, “Semisynthetic macrolide antibiotics of the azalide series” (GlaxoSmithKline istrazivacki center Zagreb, priority 2002, dated 2008).

Experiment in all cases: MIC by broth dilution (NCCLS M7-A2)
What all share (assay type): cell-based
Holding throughout (conditions): 90% growth inhibition
(In general: Dilution methods test growth across graded concentrations, often in twofold steps.)

Experiment [1] concerns E. coli ATCC 25922. From the text:
(§1) MIC levels for all compound were determinated on panel of susceptible, and resistant Gram positive bacterial strains (S. aureus, S. pneumoniae and S. pyogenes) and on Gram negative strains (E. coli, H. influenzae, […], M. catarrhalis).

Experiment [2] relates to E. faecalis ATCC 29212.
Excerpt: as §1

In experiment [3] the test system is H. influenzae ATCC 49247.
Excerpt: as §1

The subject of experiment [4] is M. catarrhalis ATCC 23246.
Excerpt: as §1

Experiment [5] concerns S. aureus ATCC 13709.
Excerpt: as §1

Experiment [6] has as its system S. pneumoniae.
Excerpt: as §1

The subject of experiment [7] is S. pyogenes M.
Excerpt: as §1

Experiment [8] concerns S. pyogenes iMLS.
Excerpt: as §1

In experiment [9] the test system is S. pyogenes.
Excerpt: as §1

As to “9-Deoxo-9-dihydro-9a-N-{N′-(β-cyanoethyl)-N′-[1-(1-naphtyl)ethyl]carbamoyl-γ-aminopropyl}-9a-aza-9a-homoerithromycin A [Example 36]”, the MIK in experiment [1] was 64 µg/mL; in [2], 16 µg/mL; in experiment [3] it was 2 µg/mL; in [4], 4 µg/mL; in experiment [5], 2 µg/mL; in [6], “≦0.125 μg/ml”. Besides, the figures for the MIK in [7], in [8] and in [9] were 16 µg/mL, 8 µg/mL and “≦0.125 μg/ml”, respectively.
